Entries after “also recorded” stand apart in the source; their conditions may differ.

Holding throughout (assay type): in vivo, mouse
The subject of one data set is HF3077 PDX. The data set can be described thus: Survival of orthotopic HF3077 PDX mice treated with capmatinib (Kaplan-Meier, log-rank). The conditions noted are these: single agent, 30 mg/kg daily oral doses, log-rank test, significance P<0.05. The source says: Orthotopic xenografts: Following IACUC guidelines in an institutionally approved animal use protocol, the inventors implanted the GBM neurosphere cell suspensions into 8-week old female nude mice (NCRNU, Taconic Farms) (i.e. immunodeficient mice) using the protocol described in Berezovsky, A. D. et al. SOX2 promotes malignancy in glioblastoma by regulating plasticity and astrocytic differentiation, Neoplasia 16, 193-206 e25 (2014), which is incorporated herein by reference. It should be noted that other “nude” or “immunodeficient” mice may be used in the present invention, as would be apparent to those skilled in the art. Thus, the present invention is not limited to the specific nude mice used in this experiment. […] Animals were monitored daily by an observer blinded to the group allocation and sacrificed upon first signs of neurological deficit or weight loss greater than 20%. […]
The inventors treated HF3077 PDXs with capmatinib (purchased from Matrix Scientific Products (Columbia, SC)) suspensions in 0.5% methylcellulose/0.1% Tween 80 were prepared every week and administered by oral gavage using a 20 g×1.5″ gavage needle (Cadence) at a dose of 30 mg/kg once a day (5 days/week) until the end of the study. […] Animals were monitored daily and sacrificed upon first signs of neurological deficit or weight loss greater than 20%. […]

Data set [1] can be described thus: LC-MS/MS quantitation of capmatinib in plasma and tumor tissue of HF3077 PDX (brain penetrance). To be noted: 2 h after the last 30 mg/kg oral dose. On the procedure:
To evaluate brain penetrance of capmatinib, the inventors drew blood samples two hours after administration of the last capmatinib 30 mg/kg dose, sacrificed the animals, harvested brains, and froze 2 mm coronal sections in OCT. The inventors dissected tumor tissue from the frozen blocks. The inventors determined capmatinib concentration in homogenized tumor tissue and plasma for three treated animals and one control was quantified by LC-MS/MS. For mouse plasma sample analysis, the inventors precipitated 25 μL of each sample with 200 μL of acetonitrile. This suspension was vortexed for 30 min and centrifuged at 4k rpm for 15 min, after which 100 μL of the extract was aliquoted and mixed with 200 μL of acetonitrile/water (1/2, v/v) prior to LC-MS/MS analysis. The extracted plasma samples were analyzed on a Waters Acquity UPLC system coupled with a Waters Xevo TQ-S triple quadrupole mass spectrometer operated at positive mode. The capillary voltage was set to 0.5 kv and collision energy to 32 eV. […] The mobile phase A was 0.1% acetic acid/water and B was 0.1% acetic acid/acetonitrile. The LC gradient was 10% B (0-0.3 min), 10-95% B (0.3-1.3 min), 95% B (1.3-1.7 min), 10% B (1.7-2.0 min) and the flow rate was 0.5 mL/min. The column temperature was 40° C. The injection volume was 2 μL. […] The tissue homogenates were analyzed by using the same method as described above.

The subject of the next data set is HF3035 PDX. The data set can be described thus: Survival of HF3035 PDX mice treated with capmatinib (Kaplan-Meier, log-rank). To be noted: single agent, 30 mg/kg daily oral doses, log-rank test.

As to `CNC(=O)c1ccc(-c2cnc3ncc(Cc4ccc5ncccc5c4)n3n2)cc1F` [capmatinib, Capmatinib], the “survival of HF3077 PDX” value in the data set with HF3077 PDX is “significant survival benefit; also recorded: increases survival of HF3077 PDX”. In data set [1], the “concentration of drug in the brain tumor” value is recorded as “relatively low concentration”. Further, in the data set on HF3035 PDX, the “survival of HF3035 PDX” value is on record as “did not increase survival”.

Source of the values: patent US12559789B2, “Method of targeting patient-specific oncogenes in extrachromosomal DNA to treat glioblastoma” (The Jackson Laboratory, priority 2017, dated 2026).
